Data: patent publication US20080207614A1, “QUINAZOLINE DERIVATIVES FOR THE TREATMENT AND PREVENTION OF DIABETES AND OBESITY” (SK CHEMICALS CO., LTD., priority 2004, published 2008)

tested on: AMPK; assay: Measurement of AMPK activity by Western blot in C2C12 cells; assay type: cell-based; set-up: key to AMPK activity (degree of phosphorylation of serine-79 and threonine-172): fold increase in threonine-172 phosphorylation; settings: 10 μM for 50 minutes, no superscript: Western blot of serine-79 and threonine-172 phosphorylation
Procedure: C2C12 cells were cultured and differentiated in the same manner as in Experimental Example 1. Treatment with the test materials was also performed in the same manner as in Experimental Example 1 (10 μM for 50 minutes). The culture medium was removed and the cells were washed for 2 times with PBS and protein extracts were obtained using a lysis buffer (50 mM tris-HCl, pH 7.4, 1% NP-40, 0.25% sodium deoxycholate, 150 mM NaCl, 1 mM EDTA, 1 mM PMSF, 1 mM sodium o-vanadate, 1 mM NaF, 1 μg/mL apronitin, 1 μg/mL leu-peptin, 1 μg/mL pepstatin). The AMPK activity was determined from Western blot analysis of the degree of phosphorylation of serine-79 […] acetyl CoA carboxylase and the degree of phosphorylation of threonine-172. The amount of ERK (extracellular signal regulated protein kinase) was confirmed by Western blot in order to quantify the proteins.
The result of Western blot analysis is given in Table 3 below, wherein “strong” means that the degree of phosphorylation of threonine-172 increased by 3 times or more, “mild” means that the degree of phosphorylation of threonine-172 increased by 1 to 3 times and “weak” means that the degree of phosphorylation of threonine-172 increased by less than 1 time.

Compound	AMPK activity (degree of phosphorylation of serine-79 and threonine-172)
COc1cc(OC)c(CNc2nc(N3CCCC3)nc3ccccc23)c(OC)c1 [Compound 315, (2-Pyrrolidino-1-ylquinazolino-4-yl)-(2,4,6-trimethoxybenzyl)-amine]	0.4
COc1ccc(CNc2nc(-c3cccs3)nc3ccccc23)c(OC)c1 [Compound 357, (2,4-Dimethoxybenzyl)-(2-thiopenyl-2-ylquinazolino-4-yl)-amine]	0.7
COc1cc(CNc2nc(-c3cccs3)nc3ccccc23)cc(OC)c1OC [Compound 356, (2-Thiopenyl-2-ylquinazolino-4-yl)-(3,4,5-trimethoxybenzyl)-amine]	1.4
COc1cccc(CNc2nc(N3CCCC3)nc3ccccc23)c1 [Compound 279, (3-Methoxybenzyl)-(2-pyrrolidino-1-ylquinazolino-4-yl)-amine]	1.3
COc1cc(CNc2nc(C(OC)c3ccccc3)nc3ccccc23)cc(OC)c1OC (stereo not shown) [Compound 367, [2-(Methoxyphenylmethyl)-quinazolino-4-yl]-(3,4,5-trimethoxybenzyl)-amine]	2.2
COc1cccc(CNc2nc(N3CCOCC3)nc3ccccc23)c1 [Compound 281, (3-Methoxybenzyl)-(2-morpholino-4-ylquinazolino-4-yl)-amine]	0.9
COc1cc(CNc2nc(C(OC)c3ccccc3)nc3ccccc23)cc(OC)c1 (stereo not shown) [Compound 365, (3,5-Dimethoxybenzyl)-[2-(methoxyphenylmethyl)-quinazolino-4-yl]-amine]	1.1
COc1cccc(CNc2nc(N3CCN(C)CC3)nc3ccccc23)c1 [Compound 282, (3-Methoxybenzyl)-[2-(4-methylpiperazino-1-yl)-quinazolino-4-yl]-amine]	0.9
CCOc1nc(NCc2ccc3c(c2)OCO3)c2ccccc2n1 [Compound 320, Benzo[1,3]dioxol-5-ylmethyl-(2-ethoxyquinazolino-4-yl)-amine]	0.9
CCCc1nc(NCc2cc(OC)c(OC)c(OC)c2)c2ccccc2n1 [Compound 400, (2-Propylquinazolino-4-yl)-(3,4,5-trimethoxybenzyl)-amine]	0.4
CC(C)c1nc(OCc2ccccc2)c2ccccc2n1 [Compound 415, 4-Benzyloxy-2-isopropylquinazoline]	1.1
COc1ccc(CNc2nc(N3CCN(C)CC3)nc3ccccc23)cc1 [Compound 286, (4-Methoxybenzyl)-[2-(4-methylpiperazino-1-yl)-quinazolino-4-yl]-amine]	1.0
COc1cccc(CNc2nc(C3CC3)nc3ccccc23)c1OC [Compound 386, (2-Cyclopropylquinazolino-4-yl)-(2,3-dimethoxybenzyl)-amine]	1.3
COc1ccc(CNc2nc(-c3cccs3)nc3ccccc23)cc1 [Compound 351, (4-Methoxybenzyl)-(2-thiopenyl-2-ylquinazolino-4-yl)-amine]	0.7
COc1ccc(OC)c(CNc2nc(-c3cccs3)nc3ccccc23)c1 [Compound 358, (2,5-Dimethoxybenzyl)-(2-thiopenyl-2-ylquinazolino-4-yl)-amine]	0.8
COc1cc(OC)c(CNc2nc(-c3cccs3)nc3ccccc23)c(OC)c1 [Compound 359, (2-Thiopenyl-2-ylquinazolino-4-yl)-(2,4,6-trimethoxybenzyl)-amine]	0.9
c1ccc2c(NCc3ccc4c(c3)OCO4)nc(C3CC3)nc2c1 [Compound 385, Benzo[1,3]dioxol-5-ylmethyl-(2-cyclopropylquinazolino-4-yl)-amine]	2.8
CC(C)c1nc(SCc2ccccc2)c2ccccc2n1 [Compound 416, 4-Benzylsulfanyl-2-isopropylquinazoline]	0.7
COc1cccc(CNc2nc(N3CCCCC3)nc3ccccc23)c1 [Compound 280, (3-Methoxybenzyl)-(2-piperidino-1-ylquinazolino-4-yl)-amine]	1.2

Compound	AMPK activity (degree of phosphorylation of serine-79 and threonine-172)
COc1ccccc1CNc1nc(-c2cccs2)nc2ccccc12 [Compound 349, (2-Methoxybenzyl)-(2-thiopenyl-2-ylquinazolino-4-yl)-amine]	2.1
COc1ccc(CNc2nc(-c3ccco3)nc3ccccc23)c(OC)c1 [Compound 346, (2,4-Dimethoxybenzyl)-(2-furano-2-ylquinazolino-4-yl)-amine]	0.8
COc1cc(CNc2nc(-c3cccs3)nc3ccccc23)cc(OC)c1 [Compound 354, (3,5-Dimethoxybenzyl)-(2-thiopenyl-2-ylquinazolino-4-yl)-amine]	0.6
COc1cccc(CNc2nc(N3CCN(C)CC3)nc3ccccc23)c1OC [Compound 290, (2,3-Dimethoxybenzyl)-[2-(4-methylpiperazino-1-yl)-quinazolino-4-yl]-amine]	1.0
COc1cc(OC)c(CNc2nc(-c3ccco3)nc3ccccc23)c(OC)c1 [Compound 348, (2-Furano-2-ylquinazolino-4-yl)-(2,4,6-trimethoxybenzyl)-amine]	1.6
COc1ccc(CNc2nc(N3CCCCC3)nc3ccccc23)cc1 [Compound 284, (4-Methoxybenzyl)-(2-piperidino-1-ylquinazolino-4-yl)-amine]	1.4
COc1ccccc1CNc1nc(N2CCOCC2)nc2ccccc12 [Compound 277, (2-Methoxybenzyl)-(2-morpholino-4-ylquinazolino-4-yl)-amine]	1.3
COc1cc(CNc2nc(N3CCCC3)nc3ccccc23)cc(OC)c1OC [Compound 311, (2-Pyrrolidino-1-ylquinazolino-4-yl)-(3,4,5-trimethoxybenzyl)-amine]	0.2
CCCc1nc(NCc2ccc(OC)cc2OC)c2ccccc2n1 [Compound 401, (2,4-Dimethoxybenzyl)-(2-propylquinazolino-4-yl)-amine]	1.4
COc1ccc(CNc2ncnc3ccccc23)cc1OC [Compound 410, (3,4-Dimethoxybenzyl)-quinazolino-4-ylamine]	1.1
COc1cccc(CNc2nc(-c3ccco3)nc3ccccc23)c1OC [Compound 342, (2,3-Dimethoxybenzyl)-(2-furano-2-ylquinazolino-4-yl)-amine]	1.0
COc1cc(CNc2nc(N3CCN(C)CC3)nc3ccccc23)cc(OC)c1OC [Compound 314, [2-(4-Methylpiperazino-1-yl)-quinazolino-4-yl]-(3,4,5-trimethoxybenzyl)-amine]	0.2
CCCc1nc(NCc2ccccc2OC)c2ccccc2n1 [Compound 393, (2-Methoxybenzyl)-(2-propylquinazolino-4-yl)-amine]	1.0
COc1cc(OC)c(CNc2nc(N3CCCCC3)nc3ccccc23)c(OC)c1 [Compound 316, (2-Piperidino-1-ylquinazolino-4-yl)-(2,4,6-trimethoxybenzyl)-amine]	1.2
CCCc1nc(NCc2cc(OC)ccc2OC)c2ccccc2n1 [Compound 402, (2,5-Dimethoxybenzyl)-(2-propylquinazolino-4-yl)-amine]	0.5
c1csc(-c2nc(NCc3ccc4c(c3)OCO4)c3ccccc3n2)c1 [Compound 352, Benzo[1,3]dioxol-5-ylmethyl-(2-thiopenyl-2-ylquinazolino-4-yl)-amine]	0.5
COc1cc(OC)c(CNc2nc(N3CCN(C)CC3)nc3ccccc23)c(OC)c1 [Compound 318, [2-(4-Methylpiperazino-1-yl)-quinazolino-4-yl]-(2,4,6-trimethoxybenzyl)-amine]	0.5
COc1cccc(CNc2nc(N3CCCC3)nc3ccccc23)c1OC [Compound 287, (2,3-Dimethoxybenzyl)-(2-pyrrolidino-1-ylquinazolino-4-yl)-amine]	1.2
